One compound from patent US9370587B2, “Coloring substance for diagnostic ophtalmologic use” (IROS R.C. S.r.l., priority 2012, dated 2016) can be followed below.

One data set deals with epithelial cells. As to the kind of experiment: Staining behaviour on tear film and corneal epithelial cells.
Data set [1] is described as follows: Tolerability of topical use on the eye. The format is in vivo, human. The settings on record: topical ocular use.

Each structure is given as a SMILES string. Entries after “also recorded” stand apart in the source; their conditions may differ.

Regarding `Cc1cc2nc3c(=O)[nH]c(=O)nc-3n(C[C@H](O)[C@H](O)[C@H](O)CO)c2cc1C` [riboflavin], the penetration into cells entry in the data set with epithelial cells is given as “does not penetrate into the cells”. The “harmfulness / side effects on the eye” value in data set [1] is “not harmful to the human eye; also recorded: side no effects; also recorded: absence of toxic effects on the corneal epithelium”.
